Measurements: US6992088B2, “Nitro and amino substituted heterocycles as topoisomerase I targeting agents” (Rutgers, The State University of New Jersey, priority 2002, dated 2006)

Experiments:
HL60/MX2 = assay: MTT-microtiter plate tetrazolinium cytotoxicity assay, HL60/MX2; format: cell-based; settings: Homo sapiens, HL60/MX2 cells
Procedure: (§1) Test B. Inhibition of Cell Growth: MTT-microtiter Plate Tetrazolinium Cytotoxicity Assay (RPMI 8402, CPT-K5, U937, U937/CR Cells)
(§2) The cytotoxicity is determined using the MTT-microtiter plate tetrazolinium cytotoxicity assay (MTA), see Chen A. Y. et al. Cancer Res. 1993, 53, 1332; Mosmann, T. J., J. Immunol. Methods 1983, 65, 55; and Carmichael, J. et al. Cancer Res. 1987, 47, 936. The human lymphoblast RPMI 8402 and its camptothecin-resistant variant cell line, CPT-K5 were provided by Dr. Toshiwo Andoh (Anchi Cancer Research Institute, Nagoya, Japan), see Andoh, T.; Okada, K, Adv. in Pharmacology 1994, 29B, 93. Human U-937 myeloid leukemia cells and U-937/CR cells were described by Rubin et al., J. Biol. Chem., 1994, 269, 2433-2439. The cytotoxicity assay is performed by using 96-well microtiter plates using 2000 cells/well, in […] of growth medium. Cells are grown in suspension at 37° C. in 5% CO2 and maintained by regular passage in RPMI medium supplemented with 10% heat-inactivated fetal bovine serum, L-glutamine (2 mM), penicillin (100U/mL), and streptomycin (0.1 mg/mL). For determination of IC50, cells are exposed continuously for 3-4 days to varying concentrations of drug, and MTT assays were performed at the end of the fourth day. […] All assays are performed at least twice in 6 replicate wells. […]

KB3-1 = assay: MTT-microtiter plate tetrazolinium cytotoxicity assay, KB3-1; format: cell-based; settings: Homo sapiens, KB 3-1, KB3-1 cells
Procedure: as §1, §2

KBV-1 = assay: MTT-microtiter plate tetrazolinium cytotoxicity assay, KBV-1; format: cell-based; settings: Homo sapiens, KB-V1, KBV-1 cells
Procedure: as §1, §2

CPT-K5 = assay: MTT-microtiter plate tetrazolinium cytotoxicity assay, CPT-K5 (camptothecin-resistant variant); format: cell-based; settings: Homo sapiens, CPT-K5 cells (camptothecin-resistant variant of RPMI 8402), continuous exposure 3-4 days
Procedure: as §1, §2

RPMI8402 = assay: MTT-microtiter plate tetrazolinium cytotoxicity assay, RPMI8402; format: cell-based; settings: Homo sapiens, RPMI 8402, RPMI8402 cells, continuous exposure 3-4 days
Procedure: as §1, §2

KBH5.0 = assay: MTT-microtiter plate tetrazolinium cytotoxicity assay, KBH5.0; format: cell-based; settings: KBH5.0 cells
Procedure: as §1, §2

HL60 = assay: MTT-microtiter plate tetrazolinium cytotoxicity assay, HL60; format: cell-based; settings: Homo sapiens, HL-60, HL60 cells
Procedure: as §1, §2

melting point: 191 to 192 °C
Structure (SMILES): CN(C)CCCn1c2c(c3ccc([N+](=O)[O-])cc3c1=O)C(=O)c1cc3c(cc1-2)OCO3 [Compound B]
IC50 (HL60/MX2): 0.003 µM
IC50 (KB3-1): 0.004 µM
IC50 (KBV-1): 0.004 µM
IC50 (CPT-K5): 2.4 µM
IC50 (RPMI8402): 0.003 µM
IC50 (KBH5.0): 0.004 µM
IC50 (HL60): 0.003 µM
